The numbers were not newly measured in US12178826B2, “Formulations for the delivery of autophagy stimulating trehalose” (priority 2017, dated 2024), which cites them from elsewhere.

Series [1] deals with mutant SOD1 transgenic mice. As to conditions: Trehalose administration.
The conditions of series [2]: after inhalation; general statement, no test described.

On to `OC[C@H]1O[C@H](O[C@H]2O[C@H](CO)[C@@H](O)[C@H](O)[C@H]2O)[C@H](O)[C@@H](O)[C@@H]1O` [Trehalose, (2R,3S,4S,5R,6R)-2-(Hydroxymethyl)-6-[(2R,3R,4S,5S,6R)-3,4,5-trihydroxy-6-(hydroxymethyl)oxan-2-yl]oxyoxane-3,4,5-triol], for which, in the series on NSC34 motoneuron cells, the “mutant SOD1 degradation by autophagy” value is reported as “led to mutant SOD1 degradation by autophagy”. Moreover, in series [1], the “accumulation of SOD1 aggregates” value is given as “decreased accumulation of SOD1 aggregates”, the life span result is “significantly prolonged life span” and the motoneuron survival entry is recorded as “enhanced motoneuron survival”. In series [2], the “time to absorption from the lungs into the bloodstream” value was no more than 2 h.
